{"source": "patent US9504676B2", "about": "“Molecules inhibiting a metabolic pathway involving the Syk protein tyrosine kinase and method for identifying said molecules” (CENTRE NATIONAL DE LA RECHERCHE SCIENTIFIQUE, priority 2008, dated 2016)", "key": {"Akt": {"tested_on": "Akt", "assay": "Phosphorylation of Akt (PI3K activity marker, Fyn-dependent cascade)", "type": "cell-based", "conditions": "RBL-2H3 cells and BMMCs", "protocol": "In mast cells, the signalling cascade Fyn/Gab2/PI3K gives rise to the activation of PI3K and the generation of PI-3,4,5-P3 recruiting a number of proteins containing a pleckstrin homology domain (PH), including Btk and PLC-γ on the plasma membrane^19.\n(§1) • 1) Chemical products and antibodies. A chemical bank of 3000 molecules (a varied subset) was acquired from ChemBridge, Inc. (San Diego, Calif.). Stocks of solutions of small molecules were prepared at a rate of 10 mM in DMSO (dimethylsulphoxide), except for C-13 (methyl 2-{5-[(3-benzyl-4-oxo-2-thioxo-1,3-thiazolidin-5-ylidene)methyl]-2-furyl}benzoate, ChemBridge ID No. 6197026) prepared in DMF (dimethylformamide). Unless specified otherwise, all the reagents were supplied by Sigma. […] The binding of G4G11 with Syk was assessed by adding the 9E10 monoclonal antibody conjugated with HRP detecting the amino acid sequence EQKLISEEDLN of human c-myc protein located at the C-terminal end of the scFv fragment. To generate Syk mutants, targeted mutagenesis was used on GST:Syk 6-242 protein and the binding of G4G11 with the mutants was assessed in the presence of 5 μM of C-13. • 3) Cells, culture conditions and functional tests. […] The level of β-hexosaminidase released was measured 10 min later and the TNF-α titration was performed by means of a cytotoxicity test on L929 cells as described previously^10, 3 hours after stimulation. […]"}, "PLC-γ with LAT": {"tested_on": "PLC-γ with LAT", "assay": "Association of PLC-γ with LAT (immunoprecipitation)", "type": "cell-based, rat", "conditions": "dose-dependent", "protocol": "Binding of Btk and Vav with SLP-76 is critical for regulating PLC-γ activity on the membrane, calcium mobilisation and granule exocytosis^27, 28.\nas §1, with “Sigma. Dinitrophenyl (DNP) hapten was acquired from Calbiochem.” for “Sigma.”"}}, "data": [{"smiles": "COC(=O)c1ccccc1-c1ccc(/C=C2/SC(=S)N(Cc3ccccc3)C2=O)o1", "note": "[Molecule C-13, methyl 2-{5-[(3-benzyl-4-oxo-2-thioxo-1,3-thiazolidin-5-ylidene)methyl]-2-furyl}benzoate]", "values": [{"measurement": "Fyn-dependent cascade (phosphorylation of Akt)", "setting": "Akt", "value": "did not affect"}, {"measurement": "association of PLC-γ with LAT", "setting": "PLC-γ with LAT", "value": "inhibited"}]}]}
